Assay results: BindingDB's records for doi:10.1016/s0960-894x(01)00038-5 (Glaxosmithkline, 2001)

Target: Lipoprotein-associated phospholipase A2 (Rattus norvegicus)
Assay: Concentration required for inhibition ofLipoprotein associated phospholipase A2 in rat at dose 2 umol/kg/h

IC50: 533 nM
SMILES: CCCCCCCCCCCCN(C)C(=O)Cn1cc(Cc2cnc(=O)n(CC(=O)O)c2)c(=O)nc1SCc1ccc(F)cc1 [{5-[1-[(Dodecyl-methyl-carbamoyl)-methyl]-2-(4-fluoro-benzylsulfanyl)-4-oxo-1,4-dihydro-pyrimidin-5-ylmethyl]-2-oxo-2H-pyrimidin-1-yl}-acetic acid]
